ChEMBL document CHEMBL1133714, “1-(2-Nitrophenyl)thiosemicarbazides: a novel class of potent, orally active non-peptide antagonist for the bradykinin B(2) receptor” (J Med Chem, 2000)

The molecules below were run against T1, B2 bradykinin receptor (Rattus norvegicus, UniProt P25023) (assay: Inhibition of binding of [3H]BK to rat bradykinin B2 receptor expressed in NG108-15 neuroblastoma-glioma hybrid cell membranes).
T1 sequence (P25023 whole entry): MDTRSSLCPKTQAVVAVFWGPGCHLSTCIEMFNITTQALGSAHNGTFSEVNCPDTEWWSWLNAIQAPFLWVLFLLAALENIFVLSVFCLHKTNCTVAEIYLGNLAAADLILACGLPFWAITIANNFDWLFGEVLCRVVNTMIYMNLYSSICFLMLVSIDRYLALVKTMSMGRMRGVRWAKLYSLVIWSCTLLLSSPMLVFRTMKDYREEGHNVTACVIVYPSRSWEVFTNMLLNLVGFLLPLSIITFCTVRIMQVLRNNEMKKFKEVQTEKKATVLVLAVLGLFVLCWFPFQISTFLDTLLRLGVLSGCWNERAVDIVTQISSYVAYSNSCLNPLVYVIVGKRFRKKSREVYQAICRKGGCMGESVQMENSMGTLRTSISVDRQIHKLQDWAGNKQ
Design: species or system Membrane
`O=[N+]([O-])c1ccccc1N/N=C(/S)NC(c1ccccc1)c1ccccc1` gave a Ki of 0.038 µM. `CN(C)CCN(C)CCNC(=O)[C@H]1CCCN1S(=O)(=O)c1ccc(NNC(=S)NC(c2ccccc2)c2ccccc2)c([N+](=O)[O-])c1` was tested, and the Ki was 0.0006 µM. Molecule `O=[N+]([O-])c1cc(S(=O)(=O)NCc2ccccc2)ccc1N/N=C(\S)CCc1ccccc1` has a Ki greater than 100 µM. For `S=C(NCc1ccccc1)NNc1ccccc1`, the Ki was 100 µM. For `O=[N+]([O-])c1cc(S(=O)(=O)NCc2ccccc2)ccc1NC/C(S)=N\Cc1ccccc1`, the Ki was greater than 100 µM. `O=[N+]([O-])c1ccccc1CNC(=S)NCc1ccccc1` showed a Ki of 7.1 µM. For `O=[N+]([O-])c1ccccc1N/N=C(/S)NCc1ccccc1`, the Ki was 1.6 µM. With `O=[N+]([O-])c1cc(S(=O)(=O)NCc2ccccc2)ccc1NNC(=S)NCc1ccccc1` the Ki was 0.31 µM. For `O=[N+]([O-])c1cccc(N/N=C(\S)NCc2ccccc2)c1`, the Ki was greater than 100 µM. In the case of `O=C(O)c1ccccc1NNC(=S)NCc1ccccc1`, the Ki is reported as greater than 100 µM. `O=[N+]([O-])c1cc(S(=O)(=O)NCc2ccco2)ccc1NNC(=S)NCc1ccco1` gave a Ki of 0.54 µM. Work on `NS(=O)(=O)c1ccc(N/N=C(/S)NC(c2ccccc2)c2ccccc2)c([N+](=O)[O-])c1` yielded a Ki of 0.004 µM. With `O=C(NCc1ccccc1)NCc1ccccc1[N+](=O)[O-]` the Ki was greater than 100 µM. In the case of `NC(=O)c1ccc(N/N=C(/S)NC(c2ccccc2)c2ccccc2)c([N+](=O)[O-])c1`, the Ki is reported as 0.0018 µM. For `CN(C)CCN(C)CCNC(=O)[C@@H]1CCCN1S(=O)(=O)c1ccc(NNC(=S)NC(c2ccccc2)c2ccccc2)c([N+](=O)[O-])c1`, the Ki was 0.0005 µM. For `CN(C)CCCN(CCCN(C)C)S(=O)(=O)c1ccc(NNC(=S)NC(c2ccccc2)c2ccccc2)c([N+](=O)[O-])c1`, the Ki was 0.148 µM.
